Experimental data from patent US12084430B2, “Tricyclic urea compounds as JAK2 V617F inhibitors” (Incyte Corporation, priority 2022, dated 2024).
Where two headings read alike, the source gives them in different places.

What was measured:
FLT3 = molecular target: T1, FLT3 (Homo sapiens, UniProt P36888); assay: FLT3 enzymatic assay; format: biochemical; conditions: 1 mM ATP
T1 sequence (P36888 27-993): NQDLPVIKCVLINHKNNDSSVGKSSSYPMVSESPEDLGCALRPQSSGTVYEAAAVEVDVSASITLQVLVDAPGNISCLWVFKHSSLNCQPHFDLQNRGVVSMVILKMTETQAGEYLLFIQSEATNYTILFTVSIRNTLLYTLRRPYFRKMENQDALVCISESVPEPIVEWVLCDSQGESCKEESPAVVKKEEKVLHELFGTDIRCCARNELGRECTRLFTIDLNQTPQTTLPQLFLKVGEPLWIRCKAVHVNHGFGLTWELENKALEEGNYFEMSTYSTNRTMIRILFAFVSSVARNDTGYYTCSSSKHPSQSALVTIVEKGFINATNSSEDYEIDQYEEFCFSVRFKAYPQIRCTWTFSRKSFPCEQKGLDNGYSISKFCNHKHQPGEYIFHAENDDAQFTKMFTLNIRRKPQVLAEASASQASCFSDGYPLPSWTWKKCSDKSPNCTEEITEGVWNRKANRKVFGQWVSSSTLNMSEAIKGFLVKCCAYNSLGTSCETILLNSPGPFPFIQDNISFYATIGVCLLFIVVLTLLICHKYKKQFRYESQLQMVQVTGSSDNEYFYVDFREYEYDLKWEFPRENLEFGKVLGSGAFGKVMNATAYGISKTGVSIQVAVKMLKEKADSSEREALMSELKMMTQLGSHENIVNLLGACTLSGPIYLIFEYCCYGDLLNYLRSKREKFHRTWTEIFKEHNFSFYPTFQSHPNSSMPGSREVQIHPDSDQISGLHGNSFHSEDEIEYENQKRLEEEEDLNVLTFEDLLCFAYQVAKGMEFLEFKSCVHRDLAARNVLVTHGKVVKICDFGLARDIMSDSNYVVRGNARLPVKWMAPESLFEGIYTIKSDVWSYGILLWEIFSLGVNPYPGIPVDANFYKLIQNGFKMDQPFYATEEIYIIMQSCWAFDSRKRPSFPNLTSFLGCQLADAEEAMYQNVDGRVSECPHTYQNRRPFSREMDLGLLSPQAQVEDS
Outline: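 Kinase reaction at room temperature in HEPES 50 mM pH 7.0 with 10 mM MgCl2, 1 mM DTT: 0.011 nM FLT3, 1 mM ATP, 500 nM biotinylated TK substrate, 0.5% DMSO. After 60 min, HTRF read as 665/620 nm ratio; IC50 from fit of percent control activity versus log concentration.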

[1] = molecular target: T2, catalytic domain (JH1, amino acids 826-1132) of human JAK2 (Homo sapiens, UniProt O60674); assay: JAK2 LanthaScreen JH1 binding assay; conditions: read-out: JH1 Bind IC50
T2 construct: catalytic domain (JH1, amino acids 826-1132) of human JAK2; FLAG (N); biotin (biotinylated); purchased Carna Biosciences 08-445-20N; host or cells: baculovirus expression system
Description: Example A. JAK2 LanthaScreen […] Binding Assay
JAK2 JH1 binding assay utilizes catalytic domain (JH1, amino acids 826-1132) of human JAK2 expressed as N-terminal FLAG-tagged, biotinylated protein in a baculovirus expression system (Carna Biosciences, Product #08-445-20N). The assay was conducted in black 384-well polystyrene plates in a final reaction volume of 20 μL. JAK2 JH1 (1.5 nM) was incubated with compounds (100 nL serially diluted in DMSO) in the presence of 50 nM fluorescent JAK2-JH1 tracer and 0.5 nM Streptavidin-Tb cryptate (Cisbio Part #610SATLB) in assay buffer (50 mM Tris, pH=7.5, 10 mM MgCl2, 0.01% Brij-35, 0.1% BSA, 1 mM EGTA, 5% Glycerol and 5 mM DTT). Non-specific binding was accessed in the presence of 2 mM ATP. After incubation for 2 hours at 25° C., LanthaScreen signals were read on a PHERAstar FS plate reader (BMG LABTECH). Data was analyzed with IDBS XLfit and GraphPad Prism 5.0 software using a four parameter dose response curve to determine IC50 for each compound.

[2] = In vivo pharmacokinetics, cynomolgus monkey; set-up: species or system Cynomolgus monkeys; conditions: both sexes, plasma, oral 3.0 mg/kg, read-out: CYNO PO AUC
Description: Example H. In Vivo Pharmacokinetics
Test compounds were administered to male Sprague Dawley rats or male and female Cynomolgus monkeys intravenously or via oral gavage. For intravenous (IV) dosing, test compounds were dosed at 1 mg/kg using a formulation of 10% dimethylacetamide (DMAC), 10% propylene glycol (PG) in acidified saline via IV bolus for rat or 10 min IV infusion for monkey. For oral (PO) dosing, test compounds were dosed at 3.0 mg/kg using 5% DMAC in 0.5% methylcellulose in citrate buffer (pH˜2.5). Blood samples were collected at predose and various time points up to 24 hours postdose. All blood samples were collected using EDTA as the anticoagulant and centrifuged to obtain plasma samples. The plasma concentrations of test compounds were determined by LC-MS/MS methods. The measured plasma concentrations were used to calculate PK parameters by standard noncompartmental methods using Phoenix® WinNonlin software program (version 8.0, Pharsight Corporation) or similar software. In rats and monkeys, cassette dosing of test compounds were conducted to obtain preliminary PK parameters. In vivo pharmacokinetic experiments with male beagle dogs may be performed under the conditions described above.

T2 sequence (O60674 826-1132): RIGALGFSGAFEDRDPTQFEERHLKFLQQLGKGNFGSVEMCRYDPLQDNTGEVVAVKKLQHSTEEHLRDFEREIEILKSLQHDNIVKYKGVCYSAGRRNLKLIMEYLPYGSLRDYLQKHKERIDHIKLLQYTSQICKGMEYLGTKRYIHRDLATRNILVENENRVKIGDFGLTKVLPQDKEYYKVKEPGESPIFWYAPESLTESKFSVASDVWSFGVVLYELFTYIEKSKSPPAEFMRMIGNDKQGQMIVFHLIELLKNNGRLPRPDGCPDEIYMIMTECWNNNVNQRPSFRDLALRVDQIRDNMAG

| Structure (SMILES) | IC50 (FLT3) | IC50 ([1]; Table A) | IC50 ([1]; Table C) | AUC [2] |
| --- | --- | --- | --- | --- |
| COC(=O)N[C@@H]1CC[C@@H](n2c(=O)n(C)c3cnc4[nH]c(-c5cn(C)nc5OC)c(-c5ccc(F)cc5)c4c32)C1 [Example 1, Methyl ((1R,3R)-3-(8-(4-fluorophenyl)-7-(3-methoxy-1-methyl-1H-pyrazol-4-yl)-3-methyl-2-oxo-3,6-dihydroimidazo[4,5-d]pyrrolo[2,3-b]pyridin-1(2H)-yl)cyclopentyl)carbamate] | > 2500 nM | > 1000 nM | > 1000 nM | > 1.5 µM·h |
| COC(=O)N[C@@H]1CC[C@@H](n2c(=O)n(C)c3cnc4[nH]c(-c5cn(C)nc5OC)c(-c5ccccc5)c4c32)C1 [Example 2, Methyl ((1R,3R)-3-(7-(3-methoxy-1-methyl-1H-pyrazol-4-yl)-3-methyl-2-oxo-8-phenyl-3,6-dihydroimidazo[4,5-d]pyrrolo[2,3-b]pyridin-1(2H)-yl)cyclopentyl)carbamate] | > 2500 nM | > 1000 nM | > 1000 nM | > 1.5 µM·h |
| COC(=O)N[C@@H]1CC[C@@H](n2c(=O)n(C)c3cnc4[nH]c(-c5cn(C)nc5OC)c(-c5cccc(F)c5)c4c32)C1 [Example 3, Methyl ((1R,3R)-3-(8-(3-fluorophenyl)-7-(3-methoxy-1-methyl-1H-pyrazol-4-yl)-3-methyl-2-oxo-3,6-dihydroimidazo[4,5-d]pyrrolo[2,3-b]pyridin-1(2H)-yl)cyclopentyl)carbamate] | > 2500 nM | > 1000 nM | > 1000 nM | > 1.5 µM·h |
| COC(=O)N[C@@H]1CC[C@@H](n2c(=O)n(C)c3cnc4[nH]c(-c5cn(C)nc5OC)c(-c5ccc(OC)c(F)c5)c4c32)C1 [Example 4, Methyl ((1R,3R)-3-(8-(3-fluoro-4-methoxyphenyl)-7-(3-methoxy-1-methyl-1H-pyrazol-4-yl)-3-methyl-2-oxo-3,6-dihydroimidazo[4,5-d]pyrrolo[2,3-b]pyridin-1(2H)-yl)cyclopentyl)carbamate] | > 2500 nM | > 1000 nM | > 1000 nM | > 1.5 µM·h |
| [2H]C([2H])([2H])n1ncc2cc(-c3c(-c4cn(C)nc4OC)[nH]c4ncc5c(c34)n([C@@H]3CC[C@@H](NC(=O)OC)C3)c(=O)n5C)ccc21 [Example 5, Methyl ((1R,3R)-3-(7-(3-methoxy-1-methyl-1H-pyrazol-4-yl)-3-methyl-8-(1-(methyl-d3)-1H-indazol-5-yl)-2-oxo-3,6-dihydroimidazo[4,5-d]pyrrolo[2,3-b]pyridin-1(2H)-yl)cyclopentyl)carbamate] | 1250 to 2500 nM | > 1000 nM | > 1000 nM | > 1.5 µM·h |
| [2H]C([2H])([2H])n1cc(-c2[nH]c3ncc4c(c3c2-c2ccc3c(cnn3C([2H])([2H])[2H])c2)n([C@@H]2CC[C@@H](NC(=O)OC)C2)c(=O)n4C([2H])([2H])[2H])c(F)n1 [Example 6, Methyl ((1R,3R)-3-(7-(3-fluoro-1-(methyl-d3)-1H-pyrazol-4-yl)-3-(methyl-d3)-8-(1-(methyl-d3)-1H-indazol-5-yl)-2-oxo-3,6-dihydroimidazo[4,5-d]pyrrolo[2,3-b]pyridin-1(2H)-yl)cyclopentyl)carbamate] | 1250 to 2500 nM | > 1000 nM | > 1000 nM | > 1.5 µM·h |
| [2H]C([2H])([2H])n1cc(-c2[nH]c3ncc4c(c3c2-c2ccc(F)cc2)n([C@@H]2CC[C@@H](NC(=O)OC)C2)c(=O)n4C([2H])([2H])[2H])c(F)n1 [Example 7, Methyl ((1R,3R)-3-(7-(3-fluoro-1-(methyl-d3)-1H-pyrazol-4-yl)-8-(4-fluorophenyl)-3-(methyl-d3)-2-oxo-3,6-dihydroimidazo[4,5-d]pyrrolo[2,3-b]pyridin-1(2H)-yl)cyclopentyl)carbamate] | > 2500 nM | > 1000 nM | > 1000 nM | > 1.5 µM·h |
| [2H]C([2H])([2H])n1cc(-c2[nH]c3ncc4c(c3c2-c2ccc3c(c2)COC3(C)C)n([C@@H]2CC[C@@H](NC(=O)OC)C2)c(=O)n4C([2H])([2H])[2H])c(F)n1 [Example 8, Methyl ((1R,3R)-3-(8-(1,1-dimethyl-1,3-dihydroisobenzofuran-5-yl)-7-(3-fluoro-1-(methyl-d3)-1H-pyrazol-4-yl)-3-(methyl-d3)-2-oxo-3,6-dihydroimidazo[4,5-d]pyrrolo[2,3-b]pyridin-1(2H)-yl)cyclopentyl)carbamate] | > 2500 nM | > 1000 nM | > 1000 nM | ≤ 0.5 µM·h |
| [2H]C([2H])([2H])Oc1ccc(-c2c(-c3cn(C([2H])([2H])[2H])nc3F)[nH]c3ncc4c(c23)n([C@@H]2CC[C@@H](NC(=O)OC)C2)c(=O)n4C([2H])([2H])[2H])cc1 [Example 9, Methyl ((1R,3R)-3-(7-(3-fluoro-1-(methyl-d3)-1H-pyrazol-4-yl)-8-(4-(methoxy-d3)phenyl)-3-(methyl-d3)-2-oxo-3,6-dihydroimidazo[4,5-d]pyrrolo[2,3-b]pyridin-1(2H)-yl)cyclopentyl)carbamate] | 250 to 1250 nM | > 1000 nM | > 1000 nM | > 1.5 µM·h |
| [2H]C([2H])([2H])n1cc(-c2[nH]c3ncc4c(c3c2-c2ccc(C(C)(C)O)cc2)n([C@@H]2CC[C@@H](NC(=O)OC)C2)c(=O)n4C([2H])([2H])[2H])c(F)n1 [Example 10, Methyl ((1R,3R)-3-(7-(3-fluoro-1-(methyl-d3)-1H-pyrazol-4-yl)-8-(4-(2-hydroxypropan-2-yl)phenyl)-3-(methyl-d3)-2-oxo-3,6-dihydroimidazo[4,5-d]pyrrolo[2,3-b]pyridin-1(2H)-yl)cyclopentyl)carbamate] | 250 to 1250 nM | > 1000 nM | > 1000 nM | 0.5 to 1.5 µM·h |
